Consider three molecules from patent publication US20140147434A1, “NCoR1 is a Physiological Modulator of Muscle Mass and Oxidative Function” (ECOLE POLYTECHNIQUE FEDERALE DE LAUSANNE (EPFL), priority 2011, published 2014).

Test [1] deals with Ucp3 promoter. Description: ChIP of endogenous NCoR1 recruitment to the Ucp3 promoter PPREs in C2C12 myotubes. It counts as cell-based, mouse. The conditions noted are these: 6 hr after addition of 100 nM GW501516. An excerpt:
(A, B, E, F, and H) NCoR1 recruitment to the PPREs on mouse Ucp3 promoter and to the ERR-RE on human and mouse Pdk4 promoter determined by ChIP in NIH-3T3 cells transfected with an NCoR1-FLAG vector or in C2C12 myotubes. A schematic of the promoters of the Ucp3 (A) and Pdk4 (E) genes and the sequence alignment of the mouse, rat and human Pdk4 promoter is also shown to highlight the conservation of the NR1/2 (or ERR-RE) (E). Boxes indicate putative PPREs in the Ucp3 and the NR1/2, IRS, and Sp1 in the Pdk4 promoter. ChIP experiments for the Ucp3 promoter were performed in C2C12 myotubes both before and 6 hr after addition of a PPARIβ/δ (100 nM GW501516); not detected. ChIP experiments in HEK293 cells transfected with FLAG-NCoR1 and HA-ERRα vector (H). (C and G) Binding of acetylated histone 4 (H4) to the PPREs on the Ucp3 and to the NR1/2 on the Pdk4 promoters in ChIP assays, using either immortalized NCoR1^L2/L2MEFs, infected with an adenovirus either expressing GFP or Cre recombinase, or C2C12 myotubes infected with the Ad-shNCoR1 virus. Representative data is shown from 3 experiments. (D) Interaction between PPARβ/δ and NCoR1 determined by in vitro co-IP experiments from HEK293 cells, in which NCoR1-FLAG and/or V5-PPARβ/δ are expressed. […] Data are expressed as mean±SEM. […]

The subject of test [2] is NCoR1. Description: NCoR1 mRNA and protein in MEFs cultured with oleic acid. The conditions noted are these: oleic acid added to the medium (0.03 mM, 48 hr), independently of the glucose concentration. It counts as cell-based, mouse. The procedure:
(A-C) Localization of NCoR1 protein was determined either by immunofluorescence and quantified (A and B) and by western blot (C). 293T cells grown without (−) or with (+) 1 µM insulin for 1 hr were stained by DAPI or anti-NCoR1 (A). Quantification of nuclear NCoR1 is shown in (B). Nuclear and cytosolic fractions were separated from FLAG-NCoR1 transfected 293T cells after a 1 hr-stimulation without (−) or with 1 μM insulin (+) and protein levels were determined by western blotting (C). (D) mRNA levels of NCoRs and its target genes determined by qRT-PCR in MEFs cultured for 24 hr in 5 or 25 mM glucose (n=6). (E) NCoR1 protein was determined by western blotting from MEFs cultured for 24 hr in 5 or 25 mM glucose. (F) NCoR1 and SMRT mRNA was determined in MEFs cultured for 48 hr in 0, 5, and 25 mM glucose. (G) NCoR1 protein was determined by western blotting from MEFs cultured for 24 hrs in 0, 5, or 25 mM glucose. […] (I) NCoR1 protein determined by western blotting from MEFs cultured as indicated in (G). (J) NCoR1 mRNA measured by qRT-PCR in muscles of resting mice or 3 hrs after an endurance run (14-wk old; n=5), in mice that were fed for 20 wks either with HFD or CD (28-wk old; n=8), in mice that were fasted or fed for 16 hrs (14-wk old; n=10), and in 6-month or 2-year old mice (n=10). […] Data are expressed as mean±SEM. […]

The subject of test [3] is SMRT. Nature of the test: SMRT mRNA in MEFs cultured with oleic acid. It counts as cell-based, mouse. The conditions noted are these: with OA in the absence of glucose. The procedure:
The mRNA expression levels were measured in cells and tissues using qRT-PCR (Lagouge et al., 2006).

For test [4], the system named is NCoR1. Description: NCoR1 localization by immunofluorescence and subcellular fractionation in 293T cells. Format: cell-based. The conditions noted are these: one hour after stimulation with 1 μM insulin. Here is the method:
(A-C) Localization of NCoR1 protein was determined either by immunofluorescence and quantified (A and B) and by western blot (C). 293T cells grown without (−) or with (+) 1 µM insulin for 1 hr were stained by DAPI or anti-NCoR1 (A). Quantification of nuclear NCoR1 is shown in (B). Nuclear and cytosolic fractions were separated from FLAG-NCoR1 transfected 293T cells after a 1 hr-stimulation without (−) or with 1 μM insulin (+) and protein levels were determined by western blotting (C). (D) mRNA levels of NCoRs and its target genes determined by qRT-PCR in MEFs cultured for 24 hr in 5 or 25 mM glucose (n=6). (E) NCoR1 protein was determined by western blotting from MEFs cultured for 24 hr in 5 or 25 mM glucose. (F) NCoR1 and SMRT mRNA was determined in MEFs cultured for 48 hr in 0, 5, and 25 mM glucose. (G) NCoR1 protein was determined by western blotting from MEFs cultured for 24 hrs in 0, 5, or 25 mM glucose. […] (I) NCoR1 protein determined by western blotting from MEFs cultured as indicated in (G). (J) NCoR1 mRNA measured by qRT-PCR in muscles of resting mice or 3 hrs after an endurance run (14-wk old; n=5), in mice that were fed for 20 wks either with HFD or CD (28-wk old; n=8), in mice that were fasted or fed for 16 hrs (14-wk old; n=10), and in 6-month or 2-year old mice (n=10). […] Data are expressed as mean±SEM.
(A) Localization of NCoR1 is determined by the immunofluorescence experiments. […]

With `Cc1cc(SCc2sc(-c3ccc(C(F)(F)F)cc3)nc2C)ccc1OCC(=O)O` [GW501516], in test [1], the “recruitment of NCoR1 to the Ucp3 promoter” value is recorded as “robustly inhibited”.
With `CCCCCCCC/C=C\CCCCCCCC(=O)O` [oleic acid], in test [2], the NCoR1 levels result is “decreased”. In test [3], the “SMRT mRNA levels” value is listed as “only a small difference”.
As to insulin, the “amounts of endogenous NCoR1 or transfected FLAG-NCoR1 detected in nuclei” value in test [4] was “higher amounts”.
